{"source": "patent US20080286344A1", "about": "“Solid form” (priority 2007, published 2008)", "origin": "cited, not measured here"}
{"smiles": "Cn1c(=O)c2[nH]cnc2n(C)c1=O", "note": "[theophylline]", "values": [{"measurement": "Solubility in water, g of water for 1 g", "setting": "1 g active in stated g of water", "result": "100-1000 g water"}, {"measurement": "Solubility in water (descriptive term)", "setting": "water", "result": "slightly soluble"}]}
